Among the test systems are DMS-114; M19-MEL; KM-20L2; RXF 631; SNB-78; DMS-273; LXFL 529; HOP-18; XF498.
What all share (test): NCI-60 cell line screen, 48 h

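Protocol summary: plate cells (96-well), add compound at 5 concentrations, incubate 48 h, interpolate endpoints linearly. GI50 is the concentration that inhibits growth by half.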 Calls of active or inactive are those of the source. Rule as the data show it: active = GI50 up to about 1.1 µM and inactive = higher.

Regarding `O=C(C/C(=N\NC(=O)C[n+]1ccccc1)C(=O)Nc1nc2ccc([N+](=O)[O-])cc2s1)CC(c1ccccc1)c1c(O)c2ccccc2oc1=O` (stereo unspecified), the GI50 in the assay on DMS-114, with M19-MEL and in the assay with KM-20L2 was > 100 µM (inactive) in each case.
Regarding `COc1ncnc2c(NC3OC(CO)C(O)C3O)ncnc12` (stereo unspecified), the GI50 with DMS-114 was 0.213 µM (active); in the assay with RXF 631, 0.3 µM (active); in the assay on SNB-78, 0.668 µM (active); with DMS-273 it was 0.152 µM (active); in the assay on LXFL 529, 0.505 µM (active); in the assay on HOP-18, < 0.01 µM (active). The GI50 was 0.902 µM (active) with XF498 and 0.407 µM (active) in the assay with KM-20L2.
With `N#CC(C(=O)C(=O)Nc1ccc(Cl)cc1)c1ccccc1` (stereo unspecified), the GI50 in the assay with DMS-114, in the assay with RXF 631, in the assay with SNB-78, with M19-MEL, in the assay on DMS-273 and in the assay on LXFL 529 was > 100 µM (inactive) throughout. In addition, the GI50 in the assay with HOP-18 and in the assay on KM-20L2 was > 100 µM (inactive) in each case.
For the molecule `COC(=O)C1=Cc2cc3c(cc2[C@H](c2ccc4c(c2)OCO4)C1C(=O)OC)OCO3` (stereo partly specified), the GI50 in the assay with DMS-114, in the assay with SNB-78, in the assay with M19-MEL, in the assay on DMS-273, with LXFL 529 and in the assay with HOP-18 was > 100 µM (inactive) throughout. Further, the GI50 in the assay on XF498 and in the assay on KM-20L2 was > 100 µM (inactive) each time.
As to `c1ccc(CSc2nc3ccccc3nc2-c2cccs2)cc1`, the GI50 in the assay with DMS-114, in the assay with SNB-78, with M19-MEL, in the assay with DMS-273, in the assay with LXFL 529 and with HOP-18 was > 100 µM (inactive) each time. Moreover, the GI50 in the assay on XF498 was > 100 µM (inactive).
`CC(Oc1ccc(OCC2CCCCC2)cc1)C(N)=O` (stereo unspecified): the GI50 in the assay on DMS-114 is 73.6 µM (inactive); with SNB-78, > 100 µM (inactive); with M19-MEL, > 100 µM (inactive); in the assay on DMS-273, > 100 µM (inactive); in the assay with LXFL 529, > 100 µM (inactive); in the assay on HOP-18, > 100 µM (inactive). Also, the GI50 in the assay on XF498 is > 100 µM (inactive).
With `COC(=O)/C(=N\NC(N)=O)C(C#N)c1ccccc1` (stereo unspecified), the GI50 in the assay on DMS-114 is > 100 µM (inactive); in the assay on SNB-78, > 100 µM (inactive); with M19-MEL it was > 100 µM (inactive); in the assay on LXFL 529, > 100 µM (inactive); with HOP-18, > 100 µM (inactive); in the assay on XF498, 75.5 µM (inactive). In addition, in the assay on KM-20L2, the GI50 was > 100 µM (inactive).
For `Brc1ccc2c(C3CN[C@@H](c4c[nH]c5cc(Br)ccc45)CN3)c[nH]c2c1` (stereo partly specified), the GI50 in the assay with DMS-114 was 1.95 µM (inactive); in the assay on RXF 631, 2.67 µM (inactive); in the assay on SNB-78 it was 10.4 µM (inactive); in the assay with M19-MEL it was 6.78 µM (inactive); in the assay on DMS-273, 2.26 µM (inactive); in the assay with LXFL 529 it was 2.13 µM (inactive). The GI50 is 11.9 µM (inactive) in the assay with HOP-18, 6.84 µM (inactive) in the assay with XF498 and 1.98 µM (inactive) in the assay on KM-20L2.
Take `CCOC(=O)C(Cc1c(C=O)[nH]c2ccccc12)(NC(=O)c1ccccc1)C(=O)OCC`: the GI50 was 19.8 µM (inactive) in the assay on DMS-114, 16 µM (inactive) in the assay with M19-MEL, > 10 µM (inactive) with HOP-18 and 16.4 µM (inactive) in the assay on XF498.
As for `Cc1c[nH]c2c(O)cc3c(c12)[C@H](CCl)CN3C(=O)c1cc2cc(NC(=O)Nc3ccc4[nH]c(C(=O)N5C[C@@H](CCl)c6c5cc(O)c5[nH]cc(C)c65)cc4c3)ccc2[nH]1` [BIZELESIN], the GI50 in the assay with DMS-114, in the assay on RXF 631, in the assay on SNB-78, in the assay with M19-MEL, in the assay on HOP-18 and in the assay with XF498 was < 0.001 µM (active) each time. The GI50 in the assay on KM-20L2 was < 0.001 µM (active).
For `O=C(/C=C/c1ccc(O)c(O)c1)OC1C[C@@](O)(C(=O)O)C[C@@H](O)[C@H]1OC(=O)/C=C/c1ccc(O)c(O)c1` (stereo partly specified), the GI50 with DMS-114, in the assay on SNB-78, in the assay on M19-MEL, in the assay on DMS-273, in the assay with LXFL 529 and with HOP-18 was > 100 µM (inactive) throughout. In addition, the results for the GI50 with XF498 and in the assay with KM-20L2 were > 100 µM (inactive) and 37.1 µM (inactive), respectively.
With `COC(=O)CCC(=O)NC1C2CC3CC(C2)CC1C3` (stereo unspecified), the GI50 in the assay with DMS-114, in the assay on RXF 631, with M19-MEL, with DMS-273, in the assay with LXFL 529 and in the assay on HOP-18 was > 100 µM (inactive) throughout. For the same molecule, the GI50 with XF498 and with KM-20L2 was > 100 µM (inactive) throughout.
For the molecule `CCCCCCCCCCCC[C@@H](O)[C@H]1CC[C@H]([C@H](O)CCCC[C@H](O)CCCCC[C@@H](O)CC2=C[C@H](C)OC2=O)O1`, the GI50 in the assay on DMS-114 is < 0.01 µM (active); in the assay on SNB-78, 3.95 µM (inactive); with M19-MEL, 1.69 µM (inactive); in the assay on DMS-273, 1.57 µM (inactive); in the assay with LXFL 529, 1.84 µM (inactive); in the assay with HOP-18 it was 3.23 µM (inactive). In addition, in the assay on KM-20L2, the GI50 was 2.19 µM (inactive).
As for `Cc1nc(=O)n2c(C)n[nH]c2c1C(=O)O`, the GI50 with DMS-114, with SNB-78, in the assay with M19-MEL, with LXFL 529 and in the assay with XF498 was > 100 µM (inactive) each time.
Consider `Cc1ccc(C(=O)CC2(O)C(=O)Nc3c(C)cc(Cl)cc32)cc1` (stereo unspecified), for which the GI50 with DMS-114 was 52.1 µM (inactive); in the assay with RXF 631, > 100 µM (inactive); with SNB-78, > 100 µM (inactive); with DMS-273, > 100 µM (inactive); with LXFL 529, > 100 µM (inactive); in the assay with HOP-18, > 100 µM (inactive). The GI50 in the assay with XF498 and in the assay on KM-20L2 was > 100 µM (inactive) throughout.
Consider `Cc1c2ccccc2cc2ccc3oc([N+](=O)[O-])cc3c12`, for which the GI50 in the assay with DMS-114 is > 100 µM (inactive); in the assay on SNB-78 it was > 100 µM (inactive); with M19-MEL, > 100 µM (inactive); in the assay on DMS-273, > 100 µM (inactive); in the assay on LXFL 529 it was > 100 µM (inactive); in the assay on HOP-18, 2 µM (inactive). The GI50 in the assay with XF498 and in the assay on KM-20L2 was > 100 µM (inactive) throughout.
Consider `CCOC(=O)C(c1ccsc1)P(=O)(OCC)OCC` (stereo unspecified), for which the GI50 in the assay on DMS-114 is 13.8 µM (inactive); in the assay with SNB-78, 12.6 µM (inactive); in the assay on M19-MEL, 11.2 µM (inactive); in the assay on DMS-273, 13.2 µM (inactive); with LXFL 529, 12 µM (inactive); with HOP-18, 28.3 µM (inactive). In addition, the GI50 in the assay with XF498 was 20.9 µM (inactive); with KM-20L2, 14.5 µM (inactive).
Consider `CC1(C)CC(=O)C(/C(=N/NC(=S)NN)C(=O)Nc2nc3ccc([N+](=O)[O-])cc3s2)C(=O)C1`, for which the GI50 with DMS-114 was > 100 µM (inactive); in the assay on SNB-78, > 100 µM (inactive); in the assay with M19-MEL, > 100 µM (inactive); in the assay on LXFL 529, > 100 µM (inactive); with HOP-18 it was 76.7 µM (inactive); with XF498, > 100 µM (inactive). In the assay on KM-20L2, the GI50 was > 100 µM (inactive).
For the molecule `CN(C)CCCn1cnc2ncccc2c1=O`, the GI50 in the assay with DMS-114 was 48.5 µM (inactive); in the assay with SNB-78, > 100 µM (inactive); in the assay on M19-MEL it was > 100 µM (inactive); in the assay with DMS-273, > 100 µM (inactive); with LXFL 529, > 100 µM (inactive); with XF498, > 100 µM (inactive).
For `O=C(Cc1nc2ccccc2o1)C(=O)Nc1cccc(Cl)c1`, the GI50 in the assay on DMS-114, in the assay with SNB-78, in the assay on M19-MEL, in the assay with LXFL 529, in the assay with HOP-18 and in the assay with XF498 was > 100 µM (inactive) each time. Moreover, the GI50 in the assay with KM-20L2 was > 100 µM (inactive).
For `COc1ccc(/C=C2\N=C(c3ccccc3)OC2=O)c(OCc2ccccc2)c1`, the GI50 in the assay with DMS-114 is 31.1 µM (inactive); in the assay on M19-MEL, 38.3 µM (inactive); in the assay on DMS-273 it was 32.3 µM (inactive); in the assay with LXFL 529 it was 38.2 µM (inactive); with HOP-18 it was > 100 µM (inactive); with KM-20L2, > 100 µM (inactive).
`CC1=C(C(=O)Nc2cc(F)c(F)cc2F)C(c2ccc([N+](=O)[O-])cc2)C(C(=O)Nc2cc(F)c(F)cc2F)=C(C)N1`: the GI50 is 15.3 µM (inactive) in the assay on DMS-114; 26.1 µM (inactive) with SNB-78; 57.7 µM (inactive) in the assay with M19-MEL; 39.7 µM (inactive) with LXFL 529; 37.9 µM (inactive) in the assay on KM-20L2.
Regarding `O=C1CCC(=O)C12CCc1ccccc12`, the GI50 with DMS-114, in the assay with RXF 631, in the assay with M19-MEL, in the assay on DMS-273, in the assay with LXFL 529 and with HOP-18 was > 100 µM (inactive) throughout. For the same molecule, the GI50 in the assay with XF498 and with KM-20L2 was > 100 µM (inactive) throughout.
For `Cc1ccccc1NC(=O)c1cc(-c2ccc([N+](=O)[O-])cc2)nc(S)n1`, the GI50 in the assay on DMS-114, in the assay with RXF 631, in the assay with SNB-78, with DMS-273, in the assay on LXFL 529 and in the assay with HOP-18 was > 100 µM (inactive) each time. Also, the GI50 with KM-20L2 is > 100 µM (inactive).
